The text below walks through data of patent publication US8629110B2, “Kv1.3 channel blocking substances for the treatment of diseases associated with intimal hyperplasia” (priority 2008, dated 2014).

Sequence of Kv1.3 channel (P22001 whole entry): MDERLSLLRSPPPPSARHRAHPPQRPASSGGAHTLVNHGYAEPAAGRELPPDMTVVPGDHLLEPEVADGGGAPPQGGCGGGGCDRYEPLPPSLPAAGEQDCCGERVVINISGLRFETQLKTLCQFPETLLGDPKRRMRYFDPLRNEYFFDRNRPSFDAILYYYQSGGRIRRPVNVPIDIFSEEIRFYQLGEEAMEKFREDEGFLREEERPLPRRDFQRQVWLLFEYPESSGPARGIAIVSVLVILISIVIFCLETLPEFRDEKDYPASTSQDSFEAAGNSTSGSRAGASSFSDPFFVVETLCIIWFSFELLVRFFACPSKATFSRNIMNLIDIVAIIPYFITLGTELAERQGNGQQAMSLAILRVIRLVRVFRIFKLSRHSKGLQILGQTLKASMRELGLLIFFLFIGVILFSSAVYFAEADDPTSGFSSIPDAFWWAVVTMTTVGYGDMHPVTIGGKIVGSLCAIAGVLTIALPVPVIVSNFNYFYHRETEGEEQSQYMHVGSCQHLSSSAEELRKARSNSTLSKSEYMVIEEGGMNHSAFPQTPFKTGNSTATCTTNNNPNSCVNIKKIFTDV

Test system in the first series: not listed separately
Kind of series: Swine stent model: pharmacokinetics (blood and arterial tissue levels). Type of series: in vivo, pigs. To be noted: pig, in vivo, 200 ug per stent; at 4 days; below the limit of detection. As to the method:
The total weight of the polymer with the drug is about 500 μg and the drug:polymer ratio is 30%. The stents are packed individually, coded with a bar code (to do a double blind experiment) and sterilized with ethylene oxide.
36 stents (12 with the polymer alone, 12 with PAP and 12 with ShK) are implanted in 12 young pigs (25-35 kg) in the anterior descending or circumflex branches of the left coronary artery or in the right coronary artery (at a proportion of 3 stents per animal). The animals recover from the operation and are sent back to the animal house where they receive a normal diet supplemented with aspirin (325 mg/d). Blood samples of the animals are obtained at 6, 12, 24, 48 and 96 hours to determine the plasma levels of PAP and ShK. At 7 (n=4) or 28 days (n=8) the animals are euthanized after performing a coronary arteriography for the quantitative analysis. In one animal of each group (7 and 28 days), after euthanasia the coronary arteries are dissected, the stent is removed and the samples are frozen in liquid nitrogen in order to determine different markers by means of Western blot of the tissues and to determine the levels of PAP and ShK in the arterial wall. In the rest of the animals, immediately after euthanasia the hearts are collected and the coronary arteries are fixed by perfusion of formalin at 10% for 30 minutes.
Turning to `CC[C@H](C)[C@@H]1NC(=O)[C@@H](NC(=O)[C@H](CO)NC(=O)[C@@H](N)CCCNC(=N)N)CSSC[C@@H](C(=O)O)NC(=O)[C@H]([C@@H](C)O)NC(=O)CNC(=O)[C@@H]2CSSC[C@@H]3NC(=O)[C@H](CCC(N)=O)NC(=O)[C@H](Cc4ccccc4)NC(=O)[C@H](C)NC(=O)[C@H]([C@@H](C)O)NC(=O)[C@H](CSSC[C@H](NC(=O)[C@H](Cc4ccccc4)NC(=O)[C@H](CO)NC(=O)[C@H](CC(C)C)NC(=O)[C@H](CCCNC(=N)N)NC(=O)[C@H](Cc4ccc(O)cc4)NC(=O)[C@H](CCCCN)NC(=O)[C@H](CCSC)NC(=O)[C@H](CO)NC(=O)[C@H](Cc4cnc[nH]4)NC(=O)[C@H](CCCCN)NC3=O)C(=O)N[C@@H](CCCNC(=N)N)C(=O)N[C@@H](CCCCN)C(=O)N[C@@H]([C@@H](C)O)C(=O)N2)NC(=O)[C@H](CCCNC(=N)N)NC(=O)[C@H](CO)NC(=O)[C@H](CCCCN)NC(=O)[C@@H]2CCCN2C(=O)[C@H]([C@@H](C)CC)NC(=O)[C@H]([C@@H](C)O)NC(=O)[C@H](CC(=O)O)NC1=O` [ShK], the level at 96 h was below 0.2 ng/mL.

For the next series, the system named is VSMCs of the human uterine artery. The series is described as follows: Proliferation of VSMCs in culture (BrdU incorporation). The series is classed as cell-based. To be noted: 10 nM; 24 hours; medium with 5% serum. As to the method: FIG. 8. Effect of the Kv1.3 channel blockers on the proliferation of the VSMCs of the human uterine artery. […] Again, these experiments were conducted in cells in control medium and cells in which the margatoxin or PAP was added to the medium.
For the proliferation studies, the fraction of cells incorporating 5-bromo-2′-deoxyuridine (BrdU) was determined. BrdU is a thymidine analog which can be incorporated in its place for the synthesis phase of the cell cycle. The cells incorporating BrdU can be detected by means of observation under a fluorescence microscope upon using a monoclonal antibody against this molecule and a secondary antibody conjugated with a fluorochrome. The assay was performed with a commercial kit (5-Bromo-2′-deoxy-uridine labeling and Detection Kit I; Roche Applied Science, Germany). The human uterine artery smooth muscle cells were grown for 48 hours in glass coverslips 12 mm in diameter in DMEM medium supplemented with serum and antibiotics as has been previously described, until reaching a confluence close to 50%. […] To quantify the results, the number of cells positive for BrdU with respect to the total number of cells in the field (which is determined by labeling the nuclei with the DAPI fluorescent dye) is counted in 10-20 fields in each experiment.
In general terms: Uptake of a labelled nucleoside into DNA is a usual measure of proliferation.
As for Margatoxin, the “fraction of cells labeled with BrdU (proliferation)” value is on record as “a lower number of labeled nuclei is observed”.

In the next series the target is T1, Kv1.3 channels (Mus musculus, UniProt P16390).
T1 construct: endogenous in cells; host or cells: freshly dissociated and cultured VSMCs from femoral arteries of BPN mice
T1 sequence (P16390 whole entry): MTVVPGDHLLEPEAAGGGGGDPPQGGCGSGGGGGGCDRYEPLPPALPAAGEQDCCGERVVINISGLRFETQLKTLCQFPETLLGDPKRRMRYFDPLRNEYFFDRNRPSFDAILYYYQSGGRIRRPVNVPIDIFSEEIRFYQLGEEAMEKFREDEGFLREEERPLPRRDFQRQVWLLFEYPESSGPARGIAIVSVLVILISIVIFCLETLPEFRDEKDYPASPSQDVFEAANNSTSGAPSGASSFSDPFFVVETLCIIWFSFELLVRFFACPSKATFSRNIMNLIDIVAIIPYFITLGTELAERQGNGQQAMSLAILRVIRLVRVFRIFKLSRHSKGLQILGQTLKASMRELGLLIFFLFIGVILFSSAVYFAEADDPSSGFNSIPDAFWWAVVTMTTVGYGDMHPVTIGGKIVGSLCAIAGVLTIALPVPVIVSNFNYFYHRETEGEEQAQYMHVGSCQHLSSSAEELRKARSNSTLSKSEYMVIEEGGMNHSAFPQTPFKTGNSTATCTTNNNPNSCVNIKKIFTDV
The series is described as follows: Whole-cell patch-clamp of Kv currents in contractile and cultured VSMCs of mouse femoral arteries. Type of series: cell-based. To be noted: VSMCs in culture; 10 nM; pulse to +40 mV. Background: Patch clamp records ionic current or voltage across a cell membrane.
Experimental: To isolate the VSMCs (model of cells in contractile phenotype), the animals were sacrificed by decapitation after anesthesia with isoflurane (5% at 2.5 I O2 min^−1).
To obtain the VSMCs in culture (in vitro model of proliferative phenotype), small fragments (0.5 mm) of femoral arteries free of endothelium and connective tissue were placed in 35 mm Petri culture dishes covered with 2% gelatin (Type B, Sigma) in a DMEM culture medium with 20% of fetal bovine serum, 100 U/ml penicillin, 100 U/ml streptomycin and 2 mM L-glutamine at 37° C. in a 5% CO2 atmosphere. The migration and proliferation of the VSMCs of these explants was clear at 6-10 days, but the explants were maintained until the single layer of VSMC was confluent. At this time, by means of mechanical scraping with a rubber spatula the cells were shed and seeded in a new culture dish at ⅓ of their original density. The VSMCs were thus subjected to several passes (3-4) without showing apparent morphological changes.
The drugs were prepared at the final concentrations indicated in the saline solution of the bath following the supplier's instructions and were applied to the cells for a period of 1-2 minutes. The currents were recorded before applying the drug (control) and in the presence of the drug, and the percentage of reduction in the amplitude of the currents induced by different blockers was calculated.
On to Margatoxin, for which the “current blocked, of the Kv current” value is recorded as 58.15±4.54.

The same series, now with this note: contractile VSMCs; 10 nM; pulse to +40 mV.
As to Margatoxin, the “current blocked, of the Kv current” value is 10.6±2.03.

The next series addresses Kv1.3 channel (Homo sapiens, UniProt P22001).
Assay: not given
To be noted: Kv1.3 channel; read-out: Affinity (Kd); cited from earlier work.
In general, Kd refers to the free concentration of one partner at which half of the binding sites on the other are occupied at equilibrium, for simple one-to-one binding. With `[Zn+2]` [Zn^2+], the equilibrium dissociation constant (Kd) is 200 µM.

As for Hongotoxin, the dissociation constant (Kd) was 8.6e-05 µM.

For `CC[N+](CC)(CC)CC` [TEA, tetraethylammonium chloride], the Kd is 10000 µM.

On to “Stichodactyla helianthus toxin—fluorescein-6-carboxylic acid [ShK-F6CA]”, for which the Kd was 4.8e-05 µM.

As for trans-N-propyl-carbamoyloxy-PAC, the Kd was 0.05 µM.

Turning to `CCC[C@@H](O)/C=C/C=C/C=C/C#CC#CCCCO` [Cicutotoxin], the dissociation constant (Kd) was 18 µM.

Titystoxin-Kα: the equilibrium dissociation constant (Kd) was 0.004 µM.

Dendrotoxin: the Kd is 0.25 µM.

For `c1ccc(C2(N3CCCCC3)CCCCC2)cc1` [Phencyclidine], the Kd was 5 µM.

“Maurotoxin (VSCTGSKDCYAPCRKQTGCPNAKCINKSCKCYGC; UniProt P80719 1-34, looked up)”: the dissociation constant (Kd) was 0.15 µM.

In the case of Agiotoxin-2, the Kd is 0.0002 µM.

For the molecule `CC(=O)[C@H]1CC[C@H]2[C@@H]3CCC4=CC(=O)CC[C@]4(C)[C@H]3CC[C@]12C` [Progesterone], the Kd is 30 µM.

With “Noxiustoxin (TIINVKCTSPKQCSKPCKELYGSSAGAKCMNGKCKCYNN; UniProt P08815 1-39, looked up)”, the Kd is 0.001 µM.

As for `COc1cc(CNC(=O)CCCC/C=C/C(C)C)ccc1O` [Capsaicin], the Kd is 26 µM.

In the case of Kaliotoxin, the Kd is 0.00065 µM.

With `CCOC(=O)C1=C(C)NC(C)=C(C(=O)OC)C1c1cccc([N+](=O)[O-])c1` (stereo not shown) [Nitrendipine], the dissociation constant Kd is 5 µM.

As to `[Hg+2]` [Hg^2+], the Kd is 10 µM.

In the case of `[La+3]` [La^3+], the dissociation constant Kd was 20 µM.

`O=c1cc(-c2ccc(O)c(O)c2)oc2cc(O)cc(O)c12` [Luteolin]: the Kd was 50 µM.

As to Margatoxin, the dissociation constant Kd is 0.00011 µM.

Regarding `[Co+2]` [Co^2+], the Kd was 200 µM.

With Buthus martensii Karsch toxin, the Kd is 0.00079 µM.

Regarding `C=C[C@H]1C[N@@]2CC[C@H]1C[C@H]2[C@H](O)c1ccnc2ccc(OC)cc12` [Quinine], the Kd is 14 µM.

Take Pandinus imperator toxin 3: the Kd was 0.0005 µM.

On to `CN1CCN(CCCN2c3ccccc3Sc3ccc(C(F)(F)F)cc32)CC1` [Trifluoperazine], for which the Kd was 20 µM.

Consider Pandinus imperator toxin 2, for which the equilibrium dissociation constant (Kd) is 5e-05 µM.

As for `COc1ccc(CCCN2CCC(COC(c3ccccc3)c3ccccc3)CC2)cc1` [UK78282], the Kd is 0.2 µM.

For the molecule Charybdotoxin, the Kd was 0.003 µM.

Take Parabuthus toxin 1: the Kd is 0.8 µM.

With Pandinus imperator toxin 1, the Kd is 0.011 µM.

Regarding Bunodosoma granulifera toxin, the Kd is 0.039 µM.

`C=C(C)[C@]12C[C@@H](C)[C@@]34O[C@](Cc5ccccc5)(O[C@@H]1[C@@H]3C=C(COC(=O)Cc1ccc(O)c(OC)c1)C[C@]1(O)C(=O)C(C)=C[C@@H]41)O2` [Resiniferatoxin]: the Kd was 3 µM.

As to Parabuthus toxin 3, the Kd was 0.492 µM.

Turning to “Stichodactyla helianthus toxin [Stichodactyla helianthus toxin (ShK)]”, the Kd is 1.1e-05 µM.

Take Heterometrus spinifer toxin 1: the dissociation constant (Kd) was 1.2e-05 µM.

κ-Hefutoxin: the Kd was 40 µM.

With “Odonthobthus doriae toxin 2 [Odonthobthus doriae toxin 2 (OdK2)]”, the dissociation constant (Kd) is 0.007 µM.

Consider `COC(=O)C1=C(C)NC(C)=C(C(=O)OC)C1c1ccccc1[N+](=O)[O-]` [Nifedipine], for which the dissociation constant Kd is 5 µM.

As to `O=C(NCC1CCCCN1)c1cc(OCC(F)(F)F)ccc1OCC(F)(F)F` (stereo not shown) [Flecainide], the Kd is 60 µM.

On to `COc1ccc([C@@H]2Sc3ccccc3N(CCN(C)C)C(=O)[C@@H]2OC(C)=O)cc1` [Diltiazem], for which the Kd was 27 µM.

The series is the same for the next values; noted with them: read-out: Affinity (Kd); cited from earlier work.
In the case of `CCCCC/N=c1\ccn(Cc2ccccc2)c2ccccc12` [CP339818], the Kd was 0.15 µM.

Regarding `C=C1C[C@@]2(O)[C@@H]3CC[C@@]4(C)[C@@H]5C=CC(=O)OC[C@]5(C(C)OC(C)=O)[C@@H](OC(C)=O)[C@@H](OC(C)=O)[C@@H]4[C@@]3(C)[C@H](OC(C)=O)[C@H](OC(C)=O)[C@@]2(C)C2(C(=O)OC)O[C@H]12` (stereo partly shown) [Correolide], the Kd was 0.09 µM.
